Earlier results as cited in patent US10722516B2, “Use of landiolol hydrochloride in the long-term treatment of tachyarrhythmias” (AOP Orphan Pharmaceuticals AG, priority 2013, dated 2020).
Where a name gives a salt, the structure may show the parent alone.

Target: adrenergic β1 adrenoreceptor (Homo sapiens, UniProt P08588)
Conditions: bolus followed by a continuous infusion; cited from earlier work

Sequence of adrenergic β1 adrenoreceptor (P08588 whole entry, the tested form may be a part): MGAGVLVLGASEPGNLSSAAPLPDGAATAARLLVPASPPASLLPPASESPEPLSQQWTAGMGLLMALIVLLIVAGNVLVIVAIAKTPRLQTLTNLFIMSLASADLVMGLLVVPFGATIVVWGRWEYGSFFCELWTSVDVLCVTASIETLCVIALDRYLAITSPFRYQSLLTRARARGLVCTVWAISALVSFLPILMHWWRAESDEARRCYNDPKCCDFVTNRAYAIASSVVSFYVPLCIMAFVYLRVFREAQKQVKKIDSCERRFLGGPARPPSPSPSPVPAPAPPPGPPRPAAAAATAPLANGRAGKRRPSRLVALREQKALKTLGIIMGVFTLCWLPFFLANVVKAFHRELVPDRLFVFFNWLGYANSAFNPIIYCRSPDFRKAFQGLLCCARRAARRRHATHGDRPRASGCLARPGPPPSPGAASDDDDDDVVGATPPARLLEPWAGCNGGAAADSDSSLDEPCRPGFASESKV

## COC(=O)CCc1ccc(OCC(O)CNC(C)C)cc1 (centres unmarked) [Esmolol, Esmolol hydrochloride]
  onset of activity: ≤ 2 min
  time to 90% of steady-state beta-blockade: ≤ 5 min
